Molecules are shown by their SMILES.

One assay addresses T1, NURR-1/RXRα (Homo sapiens, UniProt P19793).
T1 construct: expressed in transfected cells; host or cells: Cos-7 cells
Put plainly: Transactivation test, NURR-1-Gal4/RXRα, luciferase reporter in Cos-7 cells. The assay is classed as cell-based. The settings on record: for EC50: Cos-7 cells, NURR-1-Gal4/RXRα, luciferase reporter, read-out: hNurr1_RXRaFL EC50; for Emax: COS-7, induction level relative to reference XCT0135908 at 2×10^−5 M (=100%), read-out: hNurr1_RXRaFL Emax (%). Here is the method:
(§1) The ability of the compounds according to the invention to behave as an activator of the heterodimers formed by the NURR-1 nuclear receptor and the RXR nuclear receptors was measured by means of an in vitro test. A transactivation test was used as primary selection (screening) test. Cos-7 cells were cotransfected with a plasmid expressing a chimera of the human NURR-1-Gal4 receptor, a plasmid expressing the human RXR receptor (RXRα or RXRγ receptor) and a 5Gal4pGL3-TK-Luc reporter plasmid. The transfctions were carried out using a chemical agent (Jet PEI). The transfected cells were distributed into 384-well plates and left to stand for 21 hours. At time 24 hours the culture medium was changed. The test products were added (final concentration of between 10^''4 and 3×10^-10 M) to the culture medium. After incubation overnight, the lucifeiase expression was measured after addition of SteadyGlo according to the instructions of the manufacturer (Promega). […] The induction levels (Emax) were calculated relative to the basal activity of each heterodimer.
Background: In a reporter assay the amount or activity of a reporter protein is the signal.

Another assay addresses T2, NURR-1/RXRγ (Homo sapiens, UniProt P48443).
T2 construct: expressed in transfected cells; host or cells: Cos-7 cells
Put plainly: Transactivation test, NURR-1-Gal4/RXRγ, luciferase reporter in Cos-7 cells. It counts as cell-based. The settings on record: for EC50: Cos-7 cells, NURR-1-Gal4/RXRγ, luciferase reporter, read-out: hNurr1_RXRgFL EC50; for Emax: COS-7, induction level relative to reference XCT0135908 at 2×10^−5 M (=100%), read-out: hNurr1_RXRgFL Emax (%). Here is the method:
as §1

Setting [1] is: induction level relative to reference XCT0135908 at 2×10^−5 M (=100%).

T1 sequence (P19793 whole entry): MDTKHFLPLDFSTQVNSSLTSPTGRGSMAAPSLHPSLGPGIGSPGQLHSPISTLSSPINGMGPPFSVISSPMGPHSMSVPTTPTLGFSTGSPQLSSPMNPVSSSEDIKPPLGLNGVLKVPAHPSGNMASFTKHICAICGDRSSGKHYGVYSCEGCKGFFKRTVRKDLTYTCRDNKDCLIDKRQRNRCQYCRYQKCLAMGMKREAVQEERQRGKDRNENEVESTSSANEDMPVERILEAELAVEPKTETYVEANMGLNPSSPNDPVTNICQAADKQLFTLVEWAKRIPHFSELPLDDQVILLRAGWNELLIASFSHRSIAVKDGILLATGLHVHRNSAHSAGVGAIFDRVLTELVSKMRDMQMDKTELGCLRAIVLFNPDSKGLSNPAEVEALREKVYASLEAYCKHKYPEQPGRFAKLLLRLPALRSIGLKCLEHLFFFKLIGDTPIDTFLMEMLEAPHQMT
T1 sequence (P43354 whole entry partner): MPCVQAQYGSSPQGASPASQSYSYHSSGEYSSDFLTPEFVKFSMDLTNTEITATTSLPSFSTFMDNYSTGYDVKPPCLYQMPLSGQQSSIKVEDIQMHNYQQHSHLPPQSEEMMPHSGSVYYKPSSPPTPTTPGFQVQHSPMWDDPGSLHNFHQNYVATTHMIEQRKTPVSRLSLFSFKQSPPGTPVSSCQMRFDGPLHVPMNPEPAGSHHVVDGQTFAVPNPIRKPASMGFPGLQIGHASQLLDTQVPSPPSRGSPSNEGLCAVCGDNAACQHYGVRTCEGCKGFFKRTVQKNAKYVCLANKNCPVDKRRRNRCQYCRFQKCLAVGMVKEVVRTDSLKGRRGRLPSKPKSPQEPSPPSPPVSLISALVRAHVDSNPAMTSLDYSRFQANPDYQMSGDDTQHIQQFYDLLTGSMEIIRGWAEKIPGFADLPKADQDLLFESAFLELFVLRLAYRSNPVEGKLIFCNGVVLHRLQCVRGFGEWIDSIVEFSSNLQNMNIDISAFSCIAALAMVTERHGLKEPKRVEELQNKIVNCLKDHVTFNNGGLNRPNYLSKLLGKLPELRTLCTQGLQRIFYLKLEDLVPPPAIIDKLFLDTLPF
T1 sequence (P04386 1-147 partner limits assumed): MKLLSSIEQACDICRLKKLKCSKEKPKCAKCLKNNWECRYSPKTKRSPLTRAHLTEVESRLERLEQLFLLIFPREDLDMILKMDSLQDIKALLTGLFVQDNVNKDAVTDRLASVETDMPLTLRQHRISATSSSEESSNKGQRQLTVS
T2 sequence (P48443 whole entry): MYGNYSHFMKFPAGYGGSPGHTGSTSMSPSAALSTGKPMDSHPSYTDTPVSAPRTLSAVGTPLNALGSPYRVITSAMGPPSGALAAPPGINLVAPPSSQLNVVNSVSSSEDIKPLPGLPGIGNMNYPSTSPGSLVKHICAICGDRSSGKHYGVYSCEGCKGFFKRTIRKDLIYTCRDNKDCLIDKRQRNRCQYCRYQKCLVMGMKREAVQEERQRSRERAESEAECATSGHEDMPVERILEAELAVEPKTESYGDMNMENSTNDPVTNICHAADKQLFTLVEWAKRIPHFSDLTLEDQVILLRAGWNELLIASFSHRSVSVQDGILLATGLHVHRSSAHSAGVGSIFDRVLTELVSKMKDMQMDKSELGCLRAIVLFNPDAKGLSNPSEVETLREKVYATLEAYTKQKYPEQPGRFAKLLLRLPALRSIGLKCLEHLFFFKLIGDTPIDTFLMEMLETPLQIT
T2 sequence (P43354 whole entry partner): as the sequence (P43354 whole entry partner) above
T2 sequence (P04386 1-147 partner limits assumed): as the sequence (P04386 1-147 partner limits assumed) above

In general, EC50 refers to the concentration that produces a half-maximal response. On to `CC1COc2cc(C(F)(F)F)ccc2N1c1cccc(N2CC(C(=O)O)C2)c1` (single isomer, unassigned; isomer 2) [Example 124-2, 1-[3-[3-methyl-7-(trifluromethyl)-2,3-dihydro-1,4-benzoxazin-4-yl]phenyl]azetidine-3-carboxylic acid, isomer 2], for which the EC50 on NURR-1/RXRα worked out at 0.01 µM; on NURR-1/RXRγ, 0.017 µM. The “hNurr1_RXRaFL Emax (%)” value at NURR-1/RXRα (setting [1]) was determined as 107%. The “hNurr1_RXRgFL Emax (%)” value at NURR-1/RXRγ (setting [1]) came out at 95%.
Broadly, the Emax is the maximal effect, on the per cent scale that the assay sets. As for `Cc1cc(-c2cccc(OC(F)(F)F)c2)cc(N2CC(C(=O)O)C2)c1` [Example 1, 1-[3-methyl-5-[3-(trifluoromethoxy)phenyl]phenyl]azetidine-3-carboxylic acid], at NURR-1/RXRα, the Emax came to 122% and the EC50 was found to be 0.041 µM. Also, on NURR-1/RXRγ, the Emax worked out at 108% and the EC50 came out at 0.069 µM.
On to `Cc1cc(-c2cc(N(C)C)cc(C(F)(F)F)c2)cc(N2CC(C(=O)O)C2)c1` [Example 2, 1-[3-[3-(dimethylamino)-5-(trifluoromethyl)phenyl]-5-methylphenyl]azetidine-3-carboxylate acid], for which, on NURR-1/RXRα, the Emax came out at 119% and the EC50 is 0.019 µM. Also, at NURR-1/RXRγ, the Emax amounted to 119% and the EC50 stood at 0.032 µM.
On to `Cc1cc(-c2cccc(C(C)C)c2)cc(N2CC(C(=O)O)C2)c1` [Example 3, 1-[3-(3-isopropylphenyl)-5-methylphenyl]azetidine-3-carboxylate acid], for which, on NURR-1/RXRα, the Emax is 101% and the EC50 amounted to 0.013 µM. Moreover, at NURR-1/RXRγ, the Emax turned out to be 97% and the EC50 was found to be 0.016 µM.
For `Cc1cc(-c2cccc(N3CCCC3)c2)cc(N2CC(C(=O)O)C2)c1` [Example 4, 1-[3-methyl-5-(3-pyrrolidin-1-ylphenyl)phenyl]azetidine-3-carboxlic acid], on NURR-1/RXRα, the Emax is 96% and the EC50 came to 0.038 µM. On NURR-1/RXRγ, the Emax was found to be 100% and the EC50 was 0.028 µM.
The matching figures for `Cc1cc(-c2cccc(OC(F)F)c2)cc(N2CC(C(=O)O)C2)c1` [Example 5, 1-[3-[3-(difluoromethoxy)phenyl]-5-methylphenyl]azetidine-3-carboxylic acid]: 124%, 0.047 µM, 115% and 0.093 µM.
As for `Cc1cc(-c2cccc(N3CCOCC3)c2)cc(N2CC(C(=O)O)C2)c1` [Example 6, 1-[3-methyl-5-(3-morpholinophenyl)phenyl]azetidine-3-carboxylic acid], on NURR-1/RXRα, the Emax came out at 111% and the EC50 stood at 0.186 µM. Also, at NURR-1/RXRγ, the Emax worked out at 101% and the EC50 stood at 0.461 µM.
The matching figures for `Cc1cc(-c2cc(F)cc(C(F)(F)F)c2)cc(N2CC(C(=O)O)C2)c1` [Example 8, 1-[3-[3-fluoro-5-(trifluoromethyl)phenyl]-5-methluphenyl]azetidine-3-carboxylic acid]: 107%, 0.005 µM, 107% and 0.012 µM.
For `Cc1cc(-c2ccc3c(c2)C(C)(C)CCC3(C)C)cc(N2CC(C(=O)O)C2)c1` [Example 9, 1-[3-methyl-5-(1,1,4,4-tetramethyltetralin-6-yl)phenyl]azetidine-3-carboxylic acid], in that order: 82%, 0.007 µM, 86% and 0.016 µM.
In the case of `O=C(O)C1CN(c2cccc(-c3cc(F)cc(C(F)(F)F)c3)c2)C1` [Example 13, 1-[3-[3-fluoro-5-(trifluoromethyl)phenyl]phenyl]azetidine-3-carboxylic acid], at NURR-1/RXRα, the Emax was 105% and the EC50 is 0.032 µM. Also, on NURR-1/RXRγ, the Emax was determined as 102% and the EC50 turned out to be 0.116 µM.
The matching figures for `O=C(O)C1CN(c2cccc(-c3cccc(C(F)(F)F)c3)c2)C1` [Example 14, 1-[3-[3-(trifluoromethyl)phenyl]phenyl]azetidine-3-carboxylic acid]: 99%, 0.053 µM, 106% and 0.114 µM.
Take `Cc1cc(-c2cccc(C(F)(F)F)c2C)cc(N2CC(C(=O)O)C2)c1` [Example 15, 1-[3-methyl-5-[2-methyl-3-(trifluoromethyl)phenyl]phenyl]azetidine-3-carboxylic acid]: on NURR-1/RXRα, the Emax is 95% and the EC50 was 0.022 µM. On NURR-1/RXRγ, the Emax came to 85% and the EC50 amounted to 0.043 µM.
For `Cc1cc(-c2cc(Cl)cc(C(F)(F)F)c2)cc(N2CC(C(=O)O)C2)c1` [Example 16, 1-[3-[3-chloro-5-(trifluoromethyl)phenyl]-5-methylphenyl]azetidine-3-carboxylic acid], in that order: 119%, 0.002 µM, 103% and 0.004 µM.
As to `Cc1cc(-c2cccc(N3CCCCC3)c2)cc(N2CC(C(=O)O)C2)c1` [Example 17, 1-[3-methyl-5-[3-(1-piperidyl)phenyl]phenyl]azetidine-carboxylic acid], on NURR-1/RXRα, the Emax came to 99% and the EC50 is 0.053 µM. Moreover, on NURR-1/RXRγ, the Emax turned out to be 84% and the EC50 turned out to be 0.119 µM.
For `Cc1cc(-c2cc(F)cc(Cl)c2)cc(N2CC(C(=O)O)C2)c1` [Example 18, 1-[3-(3-chloro-5-fluorophenyl)-5-methylphenyl]azetidine-3-carboxylic acid], in that order: 95%, 0.067 µM, 93% and 0.157 µM.
Take `Cc1cc(-c2cccc(C3=NC(C)(C)CO3)c2)cc(N2CC(C(=O)O)C2)c1` [Example 19, 1-[3-[3-(4,4-dimethyl-5H-oxazol-2-yl)phenyl]-5-methylphenyl]azetidine-3-carboxylic acid]: on NURR-1/RXRα, the Emax turned out to be 97% and the EC50 was found to be 1.43 µM. For the same molecule, at NURR-1/RXRγ, the Emax stood at 71% and the EC50 amounted to 1.77 µM.
Take `Cc1cc(-c2cccc(C(C)(C)O)c2)cc(N2CC(C(=O)O)C2)c1` [Example 20, 1-[3-[3-(1-hydroxy-1-methylethyl)phenyl]-5-methylphenyl]azetidine-3-carboxylic acid]: on NURR-1/RXRα, the Emax stood at 87% and the EC50 came out at 2.09 µM. Moreover, at NURR-1/RXRγ, the Emax turned out to be 69% and the EC50 was more than 5 µM.
For `Cc1cc(-c2cc(C(F)(F)F)nc3ccccc23)cc(N2CC(C(=O)O)C2)c1` [Example 21, 1-[3-methyl-5-[2-(trifluoromethyl)-4-quinolyl]phenyl]azetidine-3-carboxylic acid], the Emax on NURR-1/RXRα is 102%; on NURR-1/RXRγ, 101%. For the same molecule, the results for the EC50 at NURR-1/RXRα and on NURR-1/RXRγ were 0.013 µM and 0.004 µM, respectively.
As for `CC(C)COc1ccc(C(F)(F)F)cc1-c1cccc(N2CC(C(=O)O)C2)c1` [Example 94, 1-[3-[2-isobutoxy-5-(trifluoromethyl)phenyl]phenyl]azetidine-3-carboxylic acid], on NURR-1/RXRα, the Emax came to 48% and the EC50 is 0.018 µM.
For the molecule `COc1ccccc1C(C)Oc1ccc(C(F)(F)F)cc1-c1cccc(N2CC(C(=O)O)C2)c1` (centres unmarked) [Example 95, 1-[3-[2-[1-(2-methoxyphenyl)ethoxy]-5-(triflurooemethyl)phenyl]phenyl]azetidine-3-carboxylic acid], on NURR-1/RXRα, the Emax is 46% and the EC50 was found to be 0.02 µM.
For `CN1CC2(CCC2)Oc2cc(C(C)(C)C)cc(-c3cccc(N4CC(C(=O)O)C4)c3)c21` [Example 213, tert-butylammonium 1-[3-(7-tert-butyl-4-methyl-spiro[3H-1,4-benzoxazine-2,1′-cyclobutane]-5-yl)phenyl]azetidine-3-carboxylate], in that order: 77% and 0.00079 µM.
The matching figures for `CC1(C)CN(CC(F)(F)F)c2c(cc(C(F)(F)F)cc2-c2cccc(N3CC(C(=O)O)C3)c2)O1` [Example 215, tert-butylammonium 1-[3-[2,2-dimethyl-4 (2,2,2-trifluoromethyl)-7-(trifluoromethyl)-3H-1,4-benzoxazin-5-yl]phenyl]azetidine-3-carboxylate]: 61% and 0.001 µM.
The matching figures for `CC(C)c1ccc2c(c1)CC(C)(C)CN2c1cccc(N2CC(C(=O)O)C2)c1` [Example 245, tert-butylammonium 1-[3-(6-isopropyl-3,3-dimethyl-2,4-dihydroquinolin-1-yl)phenyl]azetidine-3-carboxylate]: 89% and 0.114 µM.
With `CC1(C)Oc2cc(C#N)ccc2N(c2cccc(N3CC(C(=O)O)C3)c2)C1=O` [Example 254, tert-butylammonium 1-[3-(7-cyano-2,2-dimethyl-3-oxo-1,4-benzoxazin-4-yl)phenyl]azetidine-3-carboxylate], at NURR-1/RXRα, the Emax stood at 70% and the EC50 stood at 2.95 µM.
The matching figures for `CC1(C)CC(c2cccc(N3CC(C(=O)O)C3)c2)c2ccc(C(F)(F)F)cc2O1` (centres unmarked) [Example 270, tert-butylammonium 1-[3-[2,2-dimethyl-7-(trifluoromethyl)chroman-4-yl]phenyl]azetidine-3-carboxylate]: 99% and 0.005 µM.

The record behind these values is US20170066717A1, “NEW PHENYLAZETIDINECARBOXYLATE OR -CARBOXAMIDE COMPOUNDS” (INVENTIVA, priority 2014, published 2017).
